This note sets out measurements from paper PMC11364019, “Capturing the blue-light activated state of the Phot-LOV1 domain from Chlamydomonas reinhardtii using time-resolved serial synchrotron crystallography” (IUCrJ, 2024).

The test concerns the target T1, CrPhotLOV1 (Chlamydomonas reinhardtii, UniProt Q8LPD9).
T1 construct: gene PHOT; LOV1 domain, residues 16-133; N-terminal His-tag (pET16b) removed by limited trypsin proteolysis; expressed in E. coli BL21 DE3
T1 sequence (Q8LPD9 16-133): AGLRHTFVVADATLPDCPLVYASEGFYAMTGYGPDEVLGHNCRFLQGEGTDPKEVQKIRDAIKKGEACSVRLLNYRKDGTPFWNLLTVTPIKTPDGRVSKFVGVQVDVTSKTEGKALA
The test can be described thus: X-ray crystallography (cryo, serial and time-resolved serial synchrotron); FTIR difference spectroscopy on crystals. The class given is binding. The settings on record: dark state: non-covalent; after blue light: covalent thioether adduct of Cys57 S-gamma to FMN C4a; crystals at pH 6.5; 100 K and room temperature.

Consider `Cc1cc2nc3c(=O)[nH]c(=O)nc-3n(C[C@H](O)[C@H](O)[C@H](O)COP(=O)(O)O)c2cc1C` [FMN, flavin mononucleotide], for which the “X-ray crystallography (cryo, serial and time-resolved serial synchrotron); FTIR” value is given as “light-induced formation of the thioether covalent adduct”.
